# Literature values, collected in patent US20140128375A1, “B[…] AS CGRP RECEPTOR ANTAGONISTS” (priority 2006, published 2014).
# Tested on: CGRP
# Settings: marmoset, electrical stimulation of the trigeminal ganglion
smiles,measurement,value
NCCCC[C@H](NC(=O)[C@@H](Cc1cc(Br)c(O)c(Br)c1)NC(=O)N1CCC(N2Cc3ccccc3NC2=O)CC1)C(=O)N1CCN(c2ccncc2)CC1 [BIBN4096BS],effect on increase in facial blood flow,could be blocked
